In US20060269621A1, “Novel therapeutic extracts and molecules for degenerative conditions” (Avestha Gengraine Technologies Pvt.Ltd., priority 2003, published 2006):

How the values were obtained:
3T3-L1 adipocytes [1] = assay: Standardization / validation of [3H]-glucose uptake 3T3-L1 assay with insulin and glitazone; format: cell-based; details: 48 hrs
3T3-L1 adipocytes [2] = assay: as above; format: cell-based; details: for [3H]-glucose uptake with insulin: in cpm (unit assumed); for Counts with insulin: insulin alone control
Protocol: In the first set of assays (insulin control and the first 9 samples) cells were grown in 96 well plates, and assayed for 3H-deoxyglucose uptake. Briefly cells were treated with plant extract overnight and immediately before the assay got washed with Krebs-Ringer-HEPES Buffer [20 mM HEPES, pH 7.4, 136 mM NaCl, 4.7 mM KCl, 1.5 mM MgSO4] at 37° C. for 30 minutes and then treated with insulin. Glucose uptake reaction was initiated by adding 0.1 mM deoxy-glucose containing deoxy-tritiated-glucose containing 12.2 kBq/mL. After 30 minutes of 37° C. incubation, the reaction was terminated by adding 40 uM cytochalasin-B. Cells were washed 3× with ice cold KRH buffer and solubilized with 100 μl of 10% Triton-X with Ca/Mg free PBS. Radioactivity incorporated into cells was measured on a top count microplate scintillation counter. Results are being interpreted as mean±SD of counts per minute.
As the basal counts were low, the assay design was changed to a 24-well format and the cell numbers increased from 100,000 cells per well to 2 million cells per well.
The two controls in this experiment were: (a) [^3H]-deoxyglucose uptake by cells in the absence of both insulin and plant extracts, and (b) [^3H]-deoxyglucose uptake by cells in the presence of insulin and absence of plant extracts.

O=C1NC(=O)C(Cc2ccc(O)cc2)S1 (stereo not drawn) [Glitazone]
Counts per minute (3T3-L1 adipocytes [1]; Glitazone 60 μg): 7886 Counts per minute | Counts per minute (3T3-L1 adipocytes [1]; Glitazone 300 μg): 47971.9 Counts per minute | Counts per minute (3T3-L1 adipocytes [2]; Glitazone 150 μg, 48 hrs): 15900.4 Counts per minute

Insulin
[3H]-glucose uptake with insulin (3T3-L1 adipocytes [2]; 100,000 cells/well, Insulin 1 nM): 60.5 | [3H]-glucose uptake with insulin (3T3-L1 adipocytes [2]; 100,000 cells/well, Insulin 10 nM): 502 | [3H]-glucose uptake with insulin (3T3-L1 adipocytes [2]; 100,000 cells/well, Insulin 100 nM): 1850 | [3H]-glucose uptake with insulin (3T3-L1 adipocytes [2]; 2,000,000 cells/well, Insulin 10 nM): 36562 | [3H]-glucose uptake with insulin (3T3-L1 adipocytes [2]; 2,000,000 cells/well, Insulin 25 nM): 38538 | [3H]-glucose uptake with insulin (3T3-L1 adipocytes [2]; 2,000,000 cells/well, Insulin 100 nM): 55258 | Counts per minute (3T3-L1 adipocytes [2]; Insulin 25 nM, 15 min): 48026.7 Counts per minute | Counts per minute (3T3-L1 adipocytes [2]; Insulin 25 nM, 30 min): 24699.9 Counts per minute | Counts per minute (3T3-L1 adipocytes [2]; Insulin 25 nM, 60 min): 28103.3 Counts per minute | [3H]-deoxyglucose uptake, Counts per minute (3T3-L1 adipocytes [2]; control: cells + insulin, no plant extract): 36561 Counts per minute | Counts with insulin (3T3-L1 adipocytes [2]; Table 15, first of two value columns): 33065.1 Counts per minute | Counts with insulin (3T3-L1 adipocytes [2]; Table 15, second of two value columns): 32352.28 Counts per minute
